Test results as given in publication PMC4650713, “Crystal structure of Bax bound to the BH3 peptide of Bim identifies important contacts for interaction” (Cell Death & Disease, 2015).
Where no end group is shown, it is not given here.

Columns and labels:
BaxΔC21 [1] = experiment: Core/latch dimer formation of BaxΔC21 with CHAPS and BH3 peptide, analysed by SEC; assay type: biochemical; conditions: BaxΔC21 2 mg/ml, twofold molar excess of peptide, 1% CHAPS, 1 h at room temperature
[2] = tested on: mitochondria isolated from Bak−/− Bax−/− mouse embryonic fibroblasts (MEFs) ectopically expressing BaxS184L; experiment: Cytochrome c release from isolated mitochondria; assay type: cell-based; conditions: immunoblot of supernatant and pellet, representative of two independent experiments
Method: To test whether this change in binding affinity influenced apoptotic activity, we assessed the ability of each peptide to induce cytochrome c release from mitochondria isolated from Bak^−/− Bax^−/− mouse embryonic fibroblasts (MEFs) ectopically expressing the mitochondrially targeted Bax variant BaxS184L.[28]
BaxS184L was stably expressed in Bax^−/− Bak^−/− MEFs and cytochrome c release assays were performed as described for Bak.[23] Supernatant and pellet fractions were separated and analysed for cytochrome c by immunoblotting.

full-length Bax = experiment: Liposome permeabilisation (carboxy-fluorescein release) by full-length Bax in response to BH3 peptides; assay type: biochemical; conditions: liposomes 4 μg/ml, 50 nM full-length Bax, 500 nM BH3 peptide, 1 h at RT; three independent experiments
Method: The suspension was extruded through a 100 nm pore size membrane and then passed over a PD10 column to remove unincorporated dye. Liposomes at 4 μg/ml were incubated with 50 nM full-length Bax and 500 nM BH3 peptide in SUV buffer for 1 h at RT. Fluorescence of released self-quenching 5(6)-carboxy-fluorescein was measured with an excitation wavelength of 485 nm and emission wavelength of 535 nm.

BaxΔC21 [3] = biological target: T1, BaxΔC21 (Homo sapiens, UniProt Q07812, C126S/C62S); experiment: Bax binding assay: SPR, BH3 peptides displacing BaxΔC from a BimBH3 chip; conditions: SPR competition, 0.5% octylglucoside
T1 construct: made in house; host or cells: Escherichia coli BL21(DE3) or ER2566
T1 sequence (Q07812 1-171 C62S/C126S): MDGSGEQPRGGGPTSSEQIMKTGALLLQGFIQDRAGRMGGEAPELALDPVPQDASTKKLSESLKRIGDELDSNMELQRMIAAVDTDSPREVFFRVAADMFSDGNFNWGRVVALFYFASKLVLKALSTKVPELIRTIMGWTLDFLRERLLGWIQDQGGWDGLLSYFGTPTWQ
Method: Bax binding assays were performed using a protocol modified from that described previously.[18] […] IC50 values were calculated with GraphPad Prism (GraphPad Software, La Jolla, CA, USA).

Sequence: SESQEDIIRNIARHLRQVGDSMDRSIPPGLVNGL [BidBH3 A91R]
- ability to trigger core/latch dimer formation of BaxΔC21 (BaxΔC21 [1]): largely unaffected
- potency at releasing cytochrome c from mitochondria [2]: at best a marginally more effective than BidBH3
- capacity to activate Bax in liposome permeabilisation assay (full-length Bax): enhanced activity over BidBH3
- binding to BaxΔC21 in the SPR assay (BaxΔC21 [3]): behaved similar to BimBH3
